ChEMBL document CHEMBL5236624, “Synthesis, Characterization, and Application of Muscarinergic M3 Receptor Ligands Linked to Fluorescent Dyes” (J Med Chem, 2022)

Tests used:
Homo sapiens [1] = species: Homo sapiens; assay: Selectivity ratio, Ki for displacement of [3H]N-methylscopolamine from human muscarinic M5 receptor expressed in human HEK293T cell membranes to Ki for displacement of [3H]N-methylscopolamine from human muscarinic M3 receptor expressed in human HEK293T cell membranes
[2] = biological target: Muscarinic acetylcholine receptor M3 (Homo sapiens, UniProt P20309); assay: Displacement of [3H]N-methylscopolamine from human muscarinic M3 receptor expressed in human HEK293T cell membranes by radioligand competition binding based analysis; parameters: species or system Cell membrane
[3] = biological target: T1, Muscarinic acetylcholine receptor M2 (Homo sapiens, UniProt P08172); assay: Displacement of [3H]N-methylscopolamine from human muscarinic M2 receptor expressed in human HEK293T cell membranes by radioligand competition binding based analysis; parameters: species or system Cell membrane
T1 sequence (P08172 whole entry): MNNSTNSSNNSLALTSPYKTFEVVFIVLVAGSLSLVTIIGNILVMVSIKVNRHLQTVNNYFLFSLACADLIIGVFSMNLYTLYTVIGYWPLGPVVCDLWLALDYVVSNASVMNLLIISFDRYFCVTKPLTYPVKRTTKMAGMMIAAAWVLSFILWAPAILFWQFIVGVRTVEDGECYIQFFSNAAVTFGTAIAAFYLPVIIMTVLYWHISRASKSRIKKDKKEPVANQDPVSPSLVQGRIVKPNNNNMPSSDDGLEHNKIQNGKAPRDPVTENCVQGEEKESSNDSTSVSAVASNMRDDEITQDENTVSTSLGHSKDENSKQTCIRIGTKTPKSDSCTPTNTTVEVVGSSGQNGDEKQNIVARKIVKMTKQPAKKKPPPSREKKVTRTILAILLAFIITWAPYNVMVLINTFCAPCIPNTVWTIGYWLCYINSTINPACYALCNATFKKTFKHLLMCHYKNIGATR

[4] = biological target: T2, Muscarinic acetylcholine receptor M1 (Homo sapiens, UniProt P11229); assay: Displacement of [3H]N-methylscopolamine from human muscarinic M1 receptor expressed in human HEK293T cell membranes by radioligand competition binding based analysis; parameters: species or system Cell membrane
T2 sequence (P11229 whole entry): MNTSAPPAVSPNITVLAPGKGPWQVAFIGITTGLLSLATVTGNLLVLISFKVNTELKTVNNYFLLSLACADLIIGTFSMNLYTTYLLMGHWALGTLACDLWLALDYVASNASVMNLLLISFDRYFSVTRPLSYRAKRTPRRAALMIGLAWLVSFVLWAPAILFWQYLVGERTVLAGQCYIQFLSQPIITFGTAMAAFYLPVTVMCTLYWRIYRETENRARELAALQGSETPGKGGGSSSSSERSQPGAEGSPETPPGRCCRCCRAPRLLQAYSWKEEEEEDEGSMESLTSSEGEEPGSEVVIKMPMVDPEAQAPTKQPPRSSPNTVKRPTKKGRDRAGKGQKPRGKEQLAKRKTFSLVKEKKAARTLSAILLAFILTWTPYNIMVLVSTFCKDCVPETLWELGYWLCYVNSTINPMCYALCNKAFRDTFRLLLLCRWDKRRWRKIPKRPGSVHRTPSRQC

[5] = biological target: T3, Muscarinic acetylcholine receptor M4 (Homo sapiens, UniProt P08173); assay: Displacement of [3H]N-methylscopolamine from human muscarinic M4 receptor expressed in human HEK293T cell membranes by radioligand competition binding based analysis; parameters: species or system Cell membrane
T3 sequence (P08173 whole entry): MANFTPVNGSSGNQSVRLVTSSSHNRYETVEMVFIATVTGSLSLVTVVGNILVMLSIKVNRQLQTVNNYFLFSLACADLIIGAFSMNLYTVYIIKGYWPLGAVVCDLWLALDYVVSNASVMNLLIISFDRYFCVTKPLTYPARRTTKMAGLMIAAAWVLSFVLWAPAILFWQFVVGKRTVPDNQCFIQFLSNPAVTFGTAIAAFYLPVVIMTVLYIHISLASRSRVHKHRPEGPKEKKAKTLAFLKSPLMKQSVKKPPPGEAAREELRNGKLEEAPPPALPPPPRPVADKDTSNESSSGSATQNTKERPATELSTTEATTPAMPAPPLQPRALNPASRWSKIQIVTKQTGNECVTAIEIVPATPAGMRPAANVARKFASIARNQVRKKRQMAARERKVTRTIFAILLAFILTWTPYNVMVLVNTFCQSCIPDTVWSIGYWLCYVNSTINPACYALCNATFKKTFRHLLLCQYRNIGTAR

Homo sapiens [6] = species: Homo sapiens; assay: Selectivity ratio, Ki for displacement of [3H]N-methylscopolamine from human muscarinic M4 receptor expressed in human HEK293T cell membranes to Ki for displacement of [3H]N-methylscopolamine from human muscarinic M3 receptor expressed in human HEK293T cell membranes
[7] = biological target: T4, Muscarinic acetylcholine receptor M5 (Homo sapiens, UniProt P08912); assay: Displacement of [3H]N-methylscopolamine from human muscarinic M5 receptor expressed in human HEK293T cell membranes by radioligand competition binding based analysis; parameters: species or system Cell membrane
T4 sequence (P08912 whole entry): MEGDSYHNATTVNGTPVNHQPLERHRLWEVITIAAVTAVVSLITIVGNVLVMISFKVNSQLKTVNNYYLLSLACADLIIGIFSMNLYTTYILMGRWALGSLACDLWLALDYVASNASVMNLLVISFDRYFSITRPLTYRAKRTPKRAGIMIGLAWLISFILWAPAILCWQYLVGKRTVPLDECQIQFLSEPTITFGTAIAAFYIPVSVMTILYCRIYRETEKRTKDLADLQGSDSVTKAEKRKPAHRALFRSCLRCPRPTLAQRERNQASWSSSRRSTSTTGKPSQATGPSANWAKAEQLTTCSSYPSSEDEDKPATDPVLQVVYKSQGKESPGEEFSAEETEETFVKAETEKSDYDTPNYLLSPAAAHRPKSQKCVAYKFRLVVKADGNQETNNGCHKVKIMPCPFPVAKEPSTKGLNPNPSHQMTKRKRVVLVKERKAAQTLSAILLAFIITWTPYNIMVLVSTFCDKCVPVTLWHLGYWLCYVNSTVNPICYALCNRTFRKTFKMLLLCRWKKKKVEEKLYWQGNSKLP

Sequence of Muscarinic acetylcholine receptor M3 (P20309 whole entry): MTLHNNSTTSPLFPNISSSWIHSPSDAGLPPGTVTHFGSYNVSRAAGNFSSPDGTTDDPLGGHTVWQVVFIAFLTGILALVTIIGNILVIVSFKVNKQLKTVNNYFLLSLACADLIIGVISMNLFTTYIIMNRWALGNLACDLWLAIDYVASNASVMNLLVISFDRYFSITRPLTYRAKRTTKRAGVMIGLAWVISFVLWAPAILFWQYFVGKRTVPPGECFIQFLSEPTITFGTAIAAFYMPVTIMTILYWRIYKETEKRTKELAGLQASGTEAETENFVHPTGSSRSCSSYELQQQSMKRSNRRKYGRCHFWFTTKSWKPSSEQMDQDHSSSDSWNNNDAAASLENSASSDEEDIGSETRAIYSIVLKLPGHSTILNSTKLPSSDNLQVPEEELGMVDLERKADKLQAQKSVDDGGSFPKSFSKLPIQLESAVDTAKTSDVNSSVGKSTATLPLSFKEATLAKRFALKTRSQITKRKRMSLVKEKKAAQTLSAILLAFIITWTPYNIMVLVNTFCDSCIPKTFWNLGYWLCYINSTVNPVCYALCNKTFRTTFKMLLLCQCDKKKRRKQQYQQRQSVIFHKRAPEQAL

SMILES | Ki [2] [nM] | Ki [3] [nM] | Ki [4] [nM] | Ki [5] [nM] | Ki [7] [nM] | Selectivity ratio (Homo sapiens [1]) | Selectivity ratio (Homo sapiens [6])
CN(C)c1ccc2c(-c3ccc(-c4cn(CCCCCn5cc(CCCCCN6CCC(COC(=O)Nc7ccc(F)cc7-c7ccc(F)c(Cl)c7)CC6)nn5)nn4)cc3C(=O)[O-])c3ccc(=[N+](C)C)cc-3oc2c1 | 3.1 | 26 | 3.8 | 2.6 | 12 | 3.9 | 0.84
CN(C)c1ccc2c(-c3ccc(-c4cn(CCCCCn5cc(CCCCCCN6CCC(OC(=O)Nc7ccc(F)cc7-c7ccc(F)c(Cl)c7)CC6)nn5)nn4)cc3C(=O)[O-])c3ccc(=[N+](C)C)cc-3oc2c1 | 12 | 9.8 | 2 | 3.8 | 11 | 0.92 | 0.32
CN1/C(=C/C=C/C=C/C2=[N+](CCCCCC(=O)NCCCCCCCCN3CCC(COC(=O)Nc4ccc(F)cc4-c4ccc(F)c(Cl)c4)CC3)c3ccccc3C2(C)C)C(C)(C)c2ccccc21 | 3.2 | 1.1 | 1.8 | 0.56 | 2.6 | 0.81 | 0.18
CN(C)c1ccc2c(-c3ccc(-c4cn(CCCCCn5cc(CCCCCN6CCC(OC(=O)Nc7ccc(F)cc7-c7ccc(F)c(Cl)c7)CC6)nn5)nn4)cc3C(=O)[O-])c3ccc(=[N+](C)C)cc-3oc2c1 | 6.8 | 26 | 4.1 | 3.3 | 9.7 | 1.4 | 0.49
CN1/C(=C/C=C/C=C/C2=[N+](CCCCCC(=O)NCCCCCCN3CCC(OC(=O)Nc4ccc(F)cc4-c4ccc(F)c(Cl)c4)CC3)c3ccccc3C2(C)C)C(C)(C)c2ccccc21 | 2.7 | 5.9 | 2.7 | 5.4 | 40 | 15 | 2
CN1/C(=C/C=C/C=C/C2=[N+](CCCCCC(=O)NCCCCCCCCN3CCC(OC(=O)Nc4ccc(F)cc4-c4ccc(F)c(Cl)c4)CC3)c3ccccc3C2(C)C)C(C)(C)c2ccccc21 |  | 0.62 | 1 | 0.86 |  |  | 1.4
CN1/C(=C/C=C/C=C/C2=[N+](CCCCCC(=O)NCCCCCCN3CCC(COC(=O)Nc4ccc(F)cc4-c4ccc(F)c(Cl)c4)CC3)c3ccccc3C2(C)C)C(C)(C)c2ccccc21 | 6.3 | 6.7 | 2.3 | 0.9 | 6.9 | 1.1 | 0.14
CN1/C(=C/C=C/C=C/C2=[N+](CCCCCC(=O)NCCCNCCCCCCN3CCC(COC(=O)Nc4ccc(F)cc4-c4ccc(F)c(Cl)c4)CC3)c3ccccc3C2(C)C)C(C)(C)c2ccccc21 | 7.7 | 9.9 | 1.9 | 1.7 | 18 | 2.3 | 0.22

Further lines, with some results ahead:

Ki [2] [nM] | Ki [3] [nM] | Ki [4] [nM] | Ki [5] [nM] | Ki [7] [nM] | SMILES | Selectivity ratio (Homo sapiens [1]) | Selectivity ratio (Homo sapiens [6])
4.3 | 92 | 2.8 |  |  | O=C(Nc1ccc(F)cc1-c1ccc(F)c(Cl)c1)OC1CCNCC1 |  | 
0.15 | 0.92 | 0.35 |  |  | NCCCCCCCCN1CCC(COC(=O)Nc2ccc(F)cc2-c2ccc(F)c(Cl)c2)CC1 |  | 
1.8 | 23 | 2 |  |  | C#CCCCCCN1CCC(OC(=O)Nc2ccc(F)cc2-c2ccc(F)c(Cl)c2)CC1 |  | 
0.28 | 1.7 | 0.34 |  |  | NCCCCCCCCN1CCC(OC(=O)Nc2ccc(F)cc2-c2ccc(F)c(Cl)c2)CC1 |  | 
1 | 7.9 | 0.63 |  |  | C#CCCCCCCN1CCC(OC(=O)Nc2ccc(F)cc2-c2ccc(F)c(Cl)c2)CC1 |  | 
0.77 | 13 | 1.3 |  |  | C#CCCCCCN1CCC(COC(=O)Nc2ccc(F)cc2-c2ccc(F)c(Cl)c2)CC1 |  | 
2.6 | 28 | 1.9 |  |  | NCCCCCCN1CCC(OC(=O)Nc2ccc(F)cc2-c2ccc(F)c(Cl)c2)CC1 |  | 
0.32 | 9.3 | 0.64 |  |  | C#CCCCCCCN1CCC(COC(=O)Nc2ccc(F)cc2-c2ccc(F)c(Cl)c2)CC1 |  | 
0.081 | 1.4 | 0.43 |  |  | NCCCCCCN1CCC(COC(=O)Nc2ccc(F)cc2-c2ccc(F)c(Cl)c2)CC1 |  | 
